Data on five compounds can be found in US6630488B1, “Quinolizinones as integrin inhibitors” (Biochem Pharma, Inc., priority 1998, dated 2003).

Data set [1] in a line: Cell proliferation and cytotoxicity MTT assay, HT29. It is filed as cell-based. The conditions noted are these: human, HT29 tumor cells. Here is the method:
(§1) The wells of microtiter plates were seeded with 2000 cells/well (T24), 2500 cells/well (HT29), 5000 cells/well (HMVEC)or 2500 cells/well (IAFp2) in 100 μL, followed by an overnight culture for cell adhesion. […] Following culture for 72 hours, 3-(4,5-dimethyl-2-thiazolyl)-2,5-diphenyltetrazolium bromide (MTT; Sigma) at 2 mg/ml was added to each well (50 μL/well) and further incubated for 4 hours at 37° C. The medium was flicked out and 200 μL of a 1:1 solution of ethanol:acetone followed by 25 μL of glycine buffer (0.1 M glycine, 0.1M NaCl, pH 10.5) is added and the color measured by the absorbance at 570 nm.
(In general: Tetrazolium assays rely on reduction of a dye to a coloured formazan, in cell work by metabolically active cells.)

Data set [2] can be described thus: Cell proliferation and cytotoxicity MTT assay, HMVEC. The format is cell-based. The settings on record: human, HMVEC endothelial cells. As for the experimental part:
as §1

Data set [3] can be described thus: Cell proliferation and cytotoxicity MTT assay, IAFp2. It is filed as cell-based. The conditions noted are these: IAFp2 skin fibroblasts, read-out: Cell proliferation and cytotoxicity IC50, IAFp2 Skin Fibroblast. Here is the method:
as §1

A further data set has as its target T1, GP IIb-IIIa (αIIbβ3) (Homo sapiens, UniProt P05106+P08514).
T1 construct: purchased Calbiochem
As to the kind of experiment: Fibrinogen binding to immobilized GP IIb-IIIa (αIIbβ3). Here is the method: (§2) Nonbound fibrinogen was removed by five washes with binding buffer. Avidin conjugated to alkaline phosphatase (Sigma), diluted in binding buffer, was added and incubated for two hours at 37° C. The plates were washed five times with binding buffer, and after addition of the substrate PNPP (Pierce), the enzyme activity was measured by the absorbance at 405 nm.

The target of the next data set is T2, placental αvβ3 (Homo sapiens, UniProt P05106+P06756).
T2 construct: purified active GP IIb-IIIa (Calbiochem) or olacental αvβ3 at 0.5 μg/ml; from tissue; host or cells: placenta
T2 sequence (P06756 31-889 limits assumed): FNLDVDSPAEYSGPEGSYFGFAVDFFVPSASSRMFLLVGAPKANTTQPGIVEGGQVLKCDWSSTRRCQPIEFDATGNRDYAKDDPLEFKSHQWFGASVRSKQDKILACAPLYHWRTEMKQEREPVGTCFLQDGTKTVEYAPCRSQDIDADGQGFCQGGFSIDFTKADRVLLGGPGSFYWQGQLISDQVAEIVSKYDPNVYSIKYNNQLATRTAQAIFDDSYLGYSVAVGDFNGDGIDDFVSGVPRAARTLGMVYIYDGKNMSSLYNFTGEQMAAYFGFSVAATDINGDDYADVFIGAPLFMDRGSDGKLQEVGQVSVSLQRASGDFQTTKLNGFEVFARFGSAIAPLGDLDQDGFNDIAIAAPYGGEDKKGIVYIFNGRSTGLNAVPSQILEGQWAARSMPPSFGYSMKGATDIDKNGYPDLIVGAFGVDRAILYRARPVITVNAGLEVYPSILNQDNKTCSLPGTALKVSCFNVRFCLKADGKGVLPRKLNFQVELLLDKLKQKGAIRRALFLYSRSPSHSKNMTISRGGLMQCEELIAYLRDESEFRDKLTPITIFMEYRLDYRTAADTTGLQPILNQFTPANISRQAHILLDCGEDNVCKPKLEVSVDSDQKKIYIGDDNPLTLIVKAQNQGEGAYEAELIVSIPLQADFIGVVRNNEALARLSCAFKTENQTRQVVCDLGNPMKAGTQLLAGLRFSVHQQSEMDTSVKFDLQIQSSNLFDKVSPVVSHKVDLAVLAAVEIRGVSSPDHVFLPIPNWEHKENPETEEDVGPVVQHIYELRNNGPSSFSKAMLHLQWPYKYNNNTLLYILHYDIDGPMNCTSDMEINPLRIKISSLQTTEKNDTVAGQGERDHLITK
T2 sequence (P06756 891-1048 partner limits assumed): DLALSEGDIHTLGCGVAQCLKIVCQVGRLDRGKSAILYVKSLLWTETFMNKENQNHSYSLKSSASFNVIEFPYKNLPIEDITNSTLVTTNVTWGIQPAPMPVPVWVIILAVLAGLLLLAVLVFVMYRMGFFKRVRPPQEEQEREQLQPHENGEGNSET
T2 sequence (P05106 27-788): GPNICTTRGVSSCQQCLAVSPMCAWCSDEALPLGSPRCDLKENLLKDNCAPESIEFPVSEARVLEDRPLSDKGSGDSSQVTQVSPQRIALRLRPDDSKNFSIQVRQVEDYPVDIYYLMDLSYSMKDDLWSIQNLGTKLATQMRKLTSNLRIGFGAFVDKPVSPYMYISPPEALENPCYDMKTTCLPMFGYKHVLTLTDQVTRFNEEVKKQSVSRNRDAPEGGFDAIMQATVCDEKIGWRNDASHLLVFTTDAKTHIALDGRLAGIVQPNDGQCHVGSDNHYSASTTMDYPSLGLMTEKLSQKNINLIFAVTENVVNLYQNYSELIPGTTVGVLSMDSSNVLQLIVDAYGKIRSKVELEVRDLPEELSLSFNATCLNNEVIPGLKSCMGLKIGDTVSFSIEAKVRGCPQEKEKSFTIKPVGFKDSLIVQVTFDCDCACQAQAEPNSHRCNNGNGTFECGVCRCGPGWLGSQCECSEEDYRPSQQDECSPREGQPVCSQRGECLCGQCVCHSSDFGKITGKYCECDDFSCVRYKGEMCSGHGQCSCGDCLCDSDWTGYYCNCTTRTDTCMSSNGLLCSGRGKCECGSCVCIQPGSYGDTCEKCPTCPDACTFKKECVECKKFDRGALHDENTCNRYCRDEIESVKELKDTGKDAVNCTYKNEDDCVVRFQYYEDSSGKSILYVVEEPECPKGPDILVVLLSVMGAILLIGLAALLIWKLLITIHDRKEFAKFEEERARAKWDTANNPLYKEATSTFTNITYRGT
Kind of data set: Fibrinogen binding to immobilized αvβ3. Here is the method: as §2

Data set [4] in a line: Cell proliferation and cytotoxicity MTT assay, T24. The format is cell-based. The conditions noted are these: human, T24 tumor cells. Here is the method:
as §1

The target of another data set is T3, α5β1 (Homo sapiens, UniProt P05556+P08648).
T3 construct: Cell Line; K562 transfected αvβ3; HT29; K562; endogenous in cells; host or cells: K562
T3 sequence (P08648 42-894 limits assumed): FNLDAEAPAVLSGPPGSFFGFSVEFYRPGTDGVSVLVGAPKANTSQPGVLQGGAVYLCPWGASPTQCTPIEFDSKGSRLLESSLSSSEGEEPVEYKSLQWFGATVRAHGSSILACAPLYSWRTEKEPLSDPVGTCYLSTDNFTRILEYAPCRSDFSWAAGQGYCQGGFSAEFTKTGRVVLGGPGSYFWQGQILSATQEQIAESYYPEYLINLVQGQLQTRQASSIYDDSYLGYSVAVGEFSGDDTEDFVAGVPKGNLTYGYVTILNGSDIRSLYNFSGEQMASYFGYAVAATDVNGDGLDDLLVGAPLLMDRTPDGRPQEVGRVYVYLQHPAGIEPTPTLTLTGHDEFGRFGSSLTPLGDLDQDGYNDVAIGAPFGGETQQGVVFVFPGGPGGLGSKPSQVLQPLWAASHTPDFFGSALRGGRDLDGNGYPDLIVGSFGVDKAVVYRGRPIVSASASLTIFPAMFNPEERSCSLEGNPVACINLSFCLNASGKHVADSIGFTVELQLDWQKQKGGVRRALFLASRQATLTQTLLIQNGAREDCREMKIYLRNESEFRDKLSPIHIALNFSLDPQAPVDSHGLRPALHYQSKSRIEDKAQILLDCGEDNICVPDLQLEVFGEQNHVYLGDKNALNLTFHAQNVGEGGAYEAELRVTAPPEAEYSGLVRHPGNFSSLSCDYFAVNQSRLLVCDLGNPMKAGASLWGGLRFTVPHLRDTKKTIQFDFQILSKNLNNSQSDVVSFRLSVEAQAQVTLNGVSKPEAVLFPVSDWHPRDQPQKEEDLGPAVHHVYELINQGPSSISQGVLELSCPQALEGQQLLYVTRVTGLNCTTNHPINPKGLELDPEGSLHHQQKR
T3 sequence (P08648 895-1049 partner limits assumed): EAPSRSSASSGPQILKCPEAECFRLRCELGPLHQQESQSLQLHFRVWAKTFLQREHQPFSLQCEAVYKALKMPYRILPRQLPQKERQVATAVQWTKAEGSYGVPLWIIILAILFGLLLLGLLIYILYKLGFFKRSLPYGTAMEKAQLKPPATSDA
T3 sequence (P05556 21-798): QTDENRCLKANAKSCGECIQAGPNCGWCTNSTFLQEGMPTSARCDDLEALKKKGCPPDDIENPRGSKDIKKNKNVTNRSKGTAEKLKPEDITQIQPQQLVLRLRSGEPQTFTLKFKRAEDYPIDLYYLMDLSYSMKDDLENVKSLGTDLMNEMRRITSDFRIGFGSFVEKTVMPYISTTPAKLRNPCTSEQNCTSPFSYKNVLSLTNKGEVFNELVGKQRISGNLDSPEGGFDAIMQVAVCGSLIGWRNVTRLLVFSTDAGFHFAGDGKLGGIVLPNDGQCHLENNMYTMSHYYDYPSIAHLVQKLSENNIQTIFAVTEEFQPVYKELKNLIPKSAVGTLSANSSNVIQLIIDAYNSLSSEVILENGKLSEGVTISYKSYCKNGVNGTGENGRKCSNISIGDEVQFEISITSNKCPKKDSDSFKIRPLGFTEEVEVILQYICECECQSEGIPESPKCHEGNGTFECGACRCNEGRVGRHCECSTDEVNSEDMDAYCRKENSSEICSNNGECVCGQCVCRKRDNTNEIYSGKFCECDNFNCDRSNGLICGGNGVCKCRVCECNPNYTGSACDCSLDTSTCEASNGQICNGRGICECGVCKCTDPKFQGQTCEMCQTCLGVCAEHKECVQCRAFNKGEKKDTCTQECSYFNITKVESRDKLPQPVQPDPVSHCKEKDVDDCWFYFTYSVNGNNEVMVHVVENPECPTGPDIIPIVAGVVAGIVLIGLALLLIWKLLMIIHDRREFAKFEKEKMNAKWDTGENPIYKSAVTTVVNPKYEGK
As to the kind of experiment: Cell attachment assay, K562. It is filed as cell-based. The conditions noted are these: ligand fibronectin, read-out: Cell attachment IC50, α5β1, Fibro-nectin. As for the experimental part: The wells of 96-well plates (Immunolon) were coated, by incubation overnight at 4° C., with 5 μg/ml of vitronectin or osteopontin, 10 μg/ml of fibronectin or 10 mg/ml BSA in PBS. The protein solution was flicked out and the wells were blocked with 10 mg/ml BSA (0.1 ml) for 1-2 hours at 37° C. Cells [HT29 (ATOC), HMVEC (Cell Systems), K562 or K562 transfected with αvβ3 (Blystone et al., 1994)] were loaded with a fluorescent marker, 5-chloromethylfluorescein diacetate (Molecular Probes, Eugene, Or) for 1 hour at 37° C., then incubated in fresh medium without the fluorescent marker for 1 hour.
(§3) Cells were lifted with trypsin-EDTA and washed two times with Hank's balanced salt solution (Sigma) supplemented with 1 mM MgCl2. Cells (75,000 cells/well) were added to coated plates in triplicate and allowed to attach at 37° C. for 1 hour in the presence or absence of specific antibodies at 5 μ/ml or increasing concentrations of compounds of interest (0.001-10 μM). Nonadherent cells were removed by gentle washing twice with PBS. The adherent cells were solubilized with 1% triton X-100 and detected using a fluorescence plate reader (Perkin Elmer).
The number of attached cells was calculated based upon starched curves for each cell line used in the experiment. Non-specific cell attachment (attachment to wells coated with BSA) was always less than 5%. The results presented are the average of triplicate samples and representative of several separate assays.

The target of a further data set is T4, αvβ3 (Homo sapiens, UniProt P05106+P06756).
T4 construct: expressed in transfected cells; host or cells: K562
T4 sequence (P06756 31-889 limits assumed): as the sequence (P06756 31-889 limits assumed) above
T4 sequence (P06756 891-1048 partner limits assumed): as the sequence (P06756 891-1048 partner limits assumed) above
T4 sequence (P05106 27-788): as the sequence (P05106 27-788) above
Kind of data set: Cell attachment assay, K562 transfected with αvβ3. The format is cell-based. As for the experimental part: (§4) The wells of 96-well plates (Immunolon) were coated, by incubation overnight at 4° C., with 5 μg/ml of vitronectin or osteopontin, 10 μg/ml of fibronectin or 10 mg/ml BSA in PBS. The protein solution was flicked out and the wells were blocked with 10 mg/ml BSA (0.1 ml) for 1-2 hours at 37° C.
as §3
(§5) The number of attached cells was calculated based upon starched curves for each cell line used in the experiment. […] The results presented are the average of triplicate samples and representative of several separate assays.

In data set [5] the test system is Chick Chorioallantoic Membrane (CAM) capillary formation. As to the kind of experiment: Chick chorioallantoic membrane (CAM) mesh assay. It is filed as in vivo, chicken. The conditions noted are these: Day 12, 24 hr treatment. Here is the method:
Fertilized white leghorn chicken eggs (SPAFAS Inc., Norwich, Conn.) were received at day 0 and incubated for 3 days at 37 C with constant humidity. On day 3, eggs were rinsed with 70% ethanol and opened into 100 mm^2 tissue culture coated Petri dishes under aseptic conditions. The embryos were then returned to a humidified 38 C incubator for 7-9 additional days.
Vitrogen (Collagen Biomaterials, Palo Alto, Calif.) at a final concentration of 0.73 mg/ml and Matrigel (Becton Dickinson, Bedford, Mass.) at a final concentration of 10 mg/ml was directly pipetted onto Nylon meshes with 250 μm^2 openings which were cut into 4 mm×4 mm squares and autoclaved. Polymerization of meshes were under aseptic conditions, on bacteriological Petri dishes. The polymerization conditions for each substrate were identical; after mixing with or without […] of VPF/VEGF165 (Peprotech, Rocky Hill, N.J.) and/or compounds of interest, 40 μl were pipetted onto each mesh in a bacteriological Petri dish.
The Petri dish was placed in a humidified 37 C incubator with 5% CO2 for 30 minutes to allow polymerization followed by an incubation at 4 C for 2 hours.
In a tissue culture enclosure, meshes were placed onto the periphery of the CAM of a day 12-14 embryo, excluding areas containing major vessels. The embryos were then returned to the humidified 38 C incubator with 3% CO2 for 24 to 48 additional hours.
Embryos were removed from the incubator and meshes were viewed under a dissecting microscope for gross evaluation. Injection of 400 μl FITC dextran, MW 2,000,000 (Sigma, St. Louis, Mo.) through glass microcapillary tubes by infusion into the umbilical vein was performed at a rate of 200 μl per minute. The FITC dextran was allowed to circulate for 5 minutes and 3.7% formaldehyde in PBS was applied directly on each mesh. The embryos were then incubated at 4 C for 5 minutes and the meshes were dissected off the CAM and fixed in 3.7% formaldehyde for 10 minutes to overnight.
After fixation, meshes were mounted on slides with 90% glycerol in PBS and visualized on an inverted fluorescence microscope. A Nikon Diaphot with a Sony DXC-151A camera attached to the side port was used for capture of images and analysis was with the NIH Image 1.61 software program. For each mesh, 5 random staggered images (approximately 600 μm each) were captured. The areas of high intensity were highlighted and measured. Results are expressed as ability to suppress capillary formation after subtraction from negative control. Values were calculated as i inhibition, considering 100% the capillary density achieved by VPF in the presence of vitrogen alone minus the background levels in the absence of VPF. Negative values indicate angiogenic stimulation above the VPF positive control.

A further data set addresses T5, αvβ5 (Homo sapiens, UniProt P06756+P18084).
T5 construct: Cells [HT29 (ATOC), HMVEC (Cell Systems), K562 or K562 transfected with αvβ3; endogenous in cells; host or cells: HT29
As to the kind of experiment: Cell attachment assay, HT29. It is filed as cell-based. Here is the method: as §4, §3, §5

The mark [6] stands for this setting: Cell attachment IC50, αvβ3, Osteo-Pontin, ligand osteopontin.
The mark [7] stands for this setting: Cell attachment IC50, αvβ3, Vitro-nectin, ligand vitronectin.
Where [8] appears, read: biotinylated-fibrinogen 10 nM, immobilized GP IIb-IIIa, read-out: IC50 values for the fibrinogen binding assay αIIbβ3.
Setting [9] is: biotinylated-fibrinogen 10 nM, immobilized placental αvβ3, read-out: IC50 values for the fibrinogen binding assay αvβ3.
The mark [10] stands for this setting: ligand osteopontin, read-out: Cell attachment IC50, αvβ3, Osteo-Pontin.
[11] abbreviates: HT29, ligand vitronectin, read-out: Cell attachment IC50, αvβ5, Vitro-Nectin.

Structures are written as SMILES. Structures can show the parent of a compound that is named as a salt. Where two headings read alike, the source gives them in different places.

T5 sequence (P06756 31-889 limits assumed): as the sequence (P06756 31-889 limits assumed) above
T5 sequence (P06756 891-1048 partner limits assumed): as the sequence (P06756 891-1048 partner limits assumed) above
T5 sequence (P18084 24-799): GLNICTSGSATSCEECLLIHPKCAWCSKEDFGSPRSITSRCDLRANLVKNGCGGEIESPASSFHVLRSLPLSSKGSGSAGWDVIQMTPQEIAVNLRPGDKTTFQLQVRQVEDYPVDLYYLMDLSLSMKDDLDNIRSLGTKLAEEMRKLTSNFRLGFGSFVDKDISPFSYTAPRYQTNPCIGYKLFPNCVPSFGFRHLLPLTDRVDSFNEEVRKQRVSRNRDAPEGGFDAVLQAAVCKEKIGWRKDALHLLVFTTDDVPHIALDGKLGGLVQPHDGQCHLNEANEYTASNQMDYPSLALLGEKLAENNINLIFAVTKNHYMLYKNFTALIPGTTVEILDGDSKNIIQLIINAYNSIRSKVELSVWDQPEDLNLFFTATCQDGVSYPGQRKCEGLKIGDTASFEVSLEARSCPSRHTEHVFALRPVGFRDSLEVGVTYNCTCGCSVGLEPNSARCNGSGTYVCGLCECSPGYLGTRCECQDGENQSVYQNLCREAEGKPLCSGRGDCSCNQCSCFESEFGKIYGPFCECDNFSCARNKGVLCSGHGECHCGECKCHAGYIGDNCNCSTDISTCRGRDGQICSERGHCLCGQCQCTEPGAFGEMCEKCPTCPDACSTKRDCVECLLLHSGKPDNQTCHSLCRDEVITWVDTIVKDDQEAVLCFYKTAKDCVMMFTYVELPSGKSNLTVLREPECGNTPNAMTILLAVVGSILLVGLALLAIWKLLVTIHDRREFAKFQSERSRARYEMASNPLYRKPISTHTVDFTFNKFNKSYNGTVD

For the compound `N=C(N)NCCCOc1ccc2cc(C(=O)NC[C@H](NS(=O)(=O)c3ccccc3)C(=O)O)cc(=O)n2c1` [Compound XV, (S)-2-Benzenesulfonylamino-3-{[7-(3-guanidino-propoxy)-4-oxo-4H-quinolizine-2-carbonyl]-amino}-propionic Acid Hydrochloride], the IC50 at 72 h in [1] is more than 100 µM; in data set [2], 16 ± 4 µM; in data set [3], 17 µM; in data set [4], more than 100 µM. Moreover, the IC50 at GP IIb-IIIa (αIIbβ3) is 0.0053 µM; on placental αvβ3, 0.015 µM; at α5β1, more than 10 µM; at αvβ3 (setting [6]), 0.5 ± 0.2 µM; on αvβ3 (setting [7]), 2.5 ± 1.5 µM. Besides, the “CAM inhibition of capillary formation” value in [5] (3 μg/mesh, +VPF) came out at 7%; in data set [5] (3 μg/mesh, −VPF), 2%; in [5] (17 μg/mesh, +VPF) it was 7%; in data set [5] (17 μg/mesh, −VPF) it was 9%; in data set [5] (33 μg/mesh, +VPF), 10%; in data set [5] (33 μg/mesh, −VPF), 8%.

For the compound `N=C(N)NCCOc1ccc2cc(C(=O)NC[C@H](NS(=O)(=O)c3ccccc3)C(=O)O)cc(=O)n2c1` [Compound XX, (S)-2-Benzenesulfonylamino-3-{[7-(2-guanidino-ethoxy)-4-oxo-4H-quinolizine-2-carbonyl]-amino}-propionic Acid Hydrochloride], the IC50 at 72 h in [1] was 100 µM; in [2], 35 ± 22 µM; in [3], 21 µM; in [4] it was more than 100 µM. Besides, the IC50 was 0.0079 µM on GP IIb-IIIa (αIIbβ3); 0.1 µM on placental αvβ3; more than 10 µM at α5β1; 2.3 ± 2 µM on αvβ3 (setting [6]); more than 10 µM against αvβ3 (setting [7]); more than 10 µM against αvβ5.

Consider `N=C(N)NCC1CCc2cc(C(=O)NCC(NS(=O)(=O)c3ccccc3)C(=O)O)cc(=O)n2C1` [Compound XXIX, (2S, 7R) and (2S, 7S)-2-Benzenesulfonylamino-3-[(7-guanidinomethyl-4-oxo-6,7,8,9-tetrahydro-4H-quinolizine-2-carbonyl)-amino]-propionic Acid], for which the IC50 at 72 h in data set [1] was 13 µM; in data set [2], 1 ± 0.2 µM; in data set [3], 23 µM; in data set [4], more than 100 µM. Moreover, the IC50 is 0.094 µM at GP IIb-IIIa (αIIbβ3) (setting [8]); 0.0042 µM at placental αvβ3 (setting [9]); more than 10 µM on α5β1; 0.16 ± 0.01 µM at αvβ3 (setting [10]); 3.2 ± 1.6 µM at αvβ5 (setting [11]). Further, the “CAM inhibition of capillary formation” value in [5] (3 μg/mesh, +VPF) is recorded as 10%; in data set [5] (3 μg/mesh, −VPF) it was 4%; in [5] (17 μg/mesh, +VPF) it was 12%; in data set [5] (17 μg/mesh, −VPF), 8%; in [5] (33 μg/mesh, +VPF), 14%; in data set [5] (33 μg/mesh, −VPF), 13%.

Regarding `Cl.N=C(N)NCc1ccc2cc(C(=O)NC[C@H](NS(=O)(=O)c3ccccc3)C(=O)O)cc(=O)n2c1` [Compound XXVII, (S)-2-Benzenesulfonylamino-3-[(7-guanidinomethyl-4-oxo-4H-quinolizine-2-carbonyl)-amino]-propionic Acid Hydrochloride], the IC50 at 72 h was more than 100 µM in data set [1], 1.2 ± 0.4 µM in data set [2], more than 100 µM in data set [3] and more than 100 µM in data set [4]. Also, the IC50 was 0.25 µM on GP IIb-IIIa (αIIbβ3) (setting [8]); 0.015 µM on placental αvβ3 (setting [9]); more than 10 µM on α5β1; 0.43 ± 0.18 µM at αvβ3 (setting [10]); 5.8 ± 3.6 µM on αvβ5 (setting [11]). In addition, the “CAM inhibition of capillary formation” value in data set [5] (3 μg/mesh, +VPF) is on record as 9%; in data set [5] (3 μg/mesh, −VPF) it was 5%; in [5] (17 μg/mesh, +VPF), 12%; in data set [5] (17 μg/mesh, −VPF), 11%; in data set [5] (33 μg/mesh, +VPF), 19%; in [5] (33 μg/mesh, −VPF), 16%.

Consider `NCCCOc1ccc2ccc(C(=O)N[C@H]3CCCC[C@@H]3C(=O)O)c(=O)n2c1.O=C(O)C(F)(F)F` (racemic) [Compound V, (+/−)(trans)-2-{[7-(3-Amino-propoxy)-4-oxo-4H-quinolizine-3-carbonyl]-amino}-cyclohexanecarboxylic Acid Trifluoroacetic Acid Salt], for which the IC50 is 96 µM at GP IIb-IIIa (αIIbβ3) (setting [8]) and more than 100 µM at placental αvβ3 (setting [9]). Also, the “CAM inhibition of capillary formation” value amounted to 7% in data set [5] (3 μg/mesh, +VPF); 1% in data set [5] (3 μg/mesh, −VPF); 9% in data set [5] (17 μg/mesh, +VPF); 8% in data set [5] (17 μg/mesh, −VPF); 20% in [5] (33 μg/mesh, +VPF); 15% in [5] (33 μg/mesh, −VPF).
